Measured values reported in US9655879B2, “Heteroarylcarboxylic acid ester derivative” (EA Pharma Co., Ltd., priority 2012, dated 2017).

These molecules were tested on Zucker Fatty rats (assay: Evaluation of hypoglycemic action). Conditions: gavage 3 mg/kg, HCl salt form, 2 or 4 hours after dosing.
Type: in vivo, rat
Method: Zucker Fatty rats (male, 11-19 week-old, Charles River Japan, Inc.) known to spontaneously develop hyperglycemia were randomly assigned to the groups (6 per group). The animals were individually housed in a polycarbonate cage and allowed to drink water freely from a watering bottle. The animals in the compound groups were gavaged with compound No. 10, 87, 19, or 69 at the dose of 3 mg/kg. These compounds were used as HCl salt form thereof, converted by the method according to Example 3, step 6 from TFA salt form thereof upon the necessity. The animals in the control group were only treated with the vehicle (0.5% methylcellulose). Animals were allowed free access to the feed (CRF-1, Oriental Yeast Co., Ltd.) during the experiment. An aspirate of the blood (6 μL) was collected from the tail vein on the time point of immediately before dosing (time 0) as well as 2, 4, and 8 hours after dosing. The blood glucose levels were determined with ACCU-CHEK Aviva (Roche Diagnostics K.K.).

Question: How did the “blood glucose levels compared with vehicle group” value turn out when `CCCN(CC(=O)O)C(=O)C(C)(C)Cc1ccc(C(=O)Oc2ccc(C(=N)N)cc2F)s1.Cl` [Compound 10, N-{3-[5-(4-amidino-2-fluorophenoxycarbonyl)thiophen-2-yl]-2,2-dimethylpropionyl}-N-propylglycine hydrochloride] was run?
Answer: significantly decreased

Question: How did the “blood glucose levels compared with vehicle group” value turn out when `CCC(CC)(Cc1ccc(C(=O)Oc2ccc(C(=N)N)cc2F)s1)C(=O)N[C@@H](CC(=O)O)C(=O)O.Cl` [Compound 19] was run?
Answer: significantly decreased

Question: For `CC(C)(Cc1ccc(C(=O)Oc2ccc(C(=N)N)cc2F)s1)C(=O)N[C@@H](C(=O)O)c1ccc(O)cc1` [Compound 69], which “blood glucose levels compared with vehicle group” value is on record?
Answer: significantly decreased
